In patent publication US6479653B1, “Compositions and method for regulation of transcription” (ARIAD Gene Therapeutics, Inc., priority 1997, dated 2002):
Entries after “also recorded” stand apart in the source; their conditions may differ.

Key:
reporter gene = assay: Transcription assay of p65 activation domain mutants; type: cell-based; conditions: for potency of p65 activation domain to induce the reporter gene, relative to wild type: mutated p65 activation domain
From the text: Thus, in one embodiment of this invention, mutations are introduced into the activation domain by standard techniques known in the art, such as site-directed PCR based mutagenesis. In this embodiment, one to five, in some cases one to three, alterations in peptide sequence can be introduced into the DNA coding for the activation domain. Each of these mutations either alone or in combination with one or more other mutations may be readily assayed for its ability to induce the transcription of either transiently transfected or stably integrated target reporter gene constructs. For instance, a construct encoding a fusion protein containing multiple copies of the modified sequence and a DNA binding domain can be introduced into cells and the activity of the encoded fusion protein measured in transcription assays (with a responsive reporter gene construct) and compared to analogous fusion proteins containing wild-type activation domain sequence or a different mutation of interest.
The foregoing is illustrated in the case of the p65 transcription activation domains. Constructs are prepared encoding fusion proteins containing one or more p65 transcription activation domains and a DNA binding domain. The p65 domains may be wild-type (as a control) or may contain any of a variety of alterations in peptide sequence. These mutations can generally be introduced into a variety of p65-derived transcription activation domains. For example, M1 mutations can be introduced into plasmids carrying p65 activation domain coding regions between amino acids 533 and 550, or 361 and 550, or 280 and 550.
Exemplary mutations for p65 transcription activation domains include those intended to increase the potency of the p65 activation domain (including the M1, M2, M6, M7 and M8 mutations) and those intended to decrease the potency (generally slightly) of the activation domain. […] Mutations of the M4 and M5 class change the conserved serine and proline residues between amino-acids 361 and 450. […] In GST pull down assays, the region of the M4 and M5 mutations interacts with TFIIA. […] Thus, mutations for the practitioner to bear in mind include, but are not limited to, the following: […]

[1] = tested on: GAL4 responsive reporter gene; assay: Rapamycin-induced expression of stably integrated GAL4-responsive SEAP reporter in transfected HT1080 B cells; type: cell-based

Molecule	expression of target genes when fused to other acidic type activation domains (reporter gene)	potency of p65 activation domain to induce the reporter gene, relative to wild type (reporter gene)	further results
401-GALAQAGAGVG (SEQ ID NO:13) [M5]	synergistically	very small effect	
377-GALALGAGGQVL(SEQ ID NO:11) [M4]	synergistically	very small effect	
CO[C@H]1C[C@@H]2CC[C@@H](C)[C@@](O)(O2)C(=O)C(=O)N2CCCC[C@H]2C(=O)O[C@H]([C@H](C)C[C@@H]2CC[C@@H](O)[C@H](OC)C2)CC(=O)[C@H](C)/C=C(\C)[C@@H](O)[C@@H](OC)C(=O)[C@H](C)C[C@H](C)/C=C/C=C/C=C/1C [rapamycin, reference compound]			rapamycin concentration giving peak levels of reporter gene expression ([1]; GF4 with RS, RMTS or RMTSV): 10 nM
529-GDEDASSIADMDASALLSQI (SEQ ID NO:9) [F 533 and F 541 to alanine residues]		half of wild type level	
RMTSV: VP16 activation domain fused to RMTS (FRB-minimal lac repressor tetramerization domain-p65) (protein, left off: small tags and cut ends) EMWHEGLEEASRLYFGERNVKGMFEVLEPLHAMMERGPQTLKETSFNQAYGRDLMEAQEWCRKYMKSGNVKDLTQAWDLYYHVFRRISKVKRKTTLAPNTQTASPRALADSLMQLARQVSRLESGQDEFPTMVFPSGQISQASALAPAPPQVLPQAPAPAPAPAMVSALAQAPAPVPVLAPGPPQAVAPPAPKPTQAGEGTLSEALLQLQFDDEDLGALLGNSTDPAVFTDLASVDNSEFQQLLNQGIPVAPHTTEPMLMEYPEAITRLVTGAQRPPDPAPAPLGAPGLPNGLLSGDEDFSSIADMDFSALLSQISSLGDELHLDGEDVAMAHADALDDFDLDMLGDGDSPGPGFTPHDSAPYGALDMADFEFEQMFTDALGIDEYGG			reporter gene expression at 1 nM rapamycin ([1]; GF4 DNA binding receptor, 1 nM rapamycin in the medium): induced the reporter gene expression robustly; reporter gene expression at the lowest level of activation domains expressed ([1]; fixed amount of GF4, 10 nM rapamycin): robust activation of reporter gene expression; also recorded: exceeded the level stimulated by the highest amount of RS fusion proteins
